Patent US4707477A, “Treating and preventing agent for ischemic cardiac disease and arrhythmia” (priority 1985, dated 1987)
Counter-ions that a name gives are not always drawn.

Assays:
[1] = test system: striated structure; experiment: Pathological examination of striated structure (Experimental Example 1); assay type: in vivo, dog; conditions: previously administered, 0.5 mg/kg i.v.
Protocol: (§1) A dog was anesthetized with 50 mg/kg of sodium pentobarbital and a 2% CaC12 solution was intravenously injected into the femoral vein of the animal at a rate of 1.33 ml/min/10 kg. After 90 min, 0.1 mg, 0.2 mg and 0.3 mg of adrenaline were successively injected thereto intraveneously.
From a pathological viewpoint, the striated structure of a subject was damaged in the case where no bunazosin hydrochloride was previously administered.

[2] = Acute toxicity, LD50, Wistar rat; conditions: in vivo
[3] = test system: Creatinie phosphokinase (CPK); experiment: Creatine phosphokinase (CPK) after CaCl2, sodium polystyrenesulfonate and adrenaline in anesthetized dog (Experimental Example 2); assay type: in vivo; conditions: 0.5 mg/kg previously administered
Protocol: A dog was anesthetized with 50 mg/kg of sodium pentobarbital and a 0.5% CaCl2 solution was intravenously injected into the femoral vein of the animal at a rate of 1.33 ml/min/10 kg simultaneously with enemiasis of 25 g of sodium polystyrenesulfonate. After 30 min, 0.05 mg/kg of adrenaline was intravenously injected thereto.

[4] = Solubility; assay type: physicochemical
[5] = test system: dog; experiment: Adrenaline-induced ventricular tachycardia/fibrillation after CaCl2 infusion in anesthetized dog (Experimental Example 1); assay type: in vivo; conditions: 0.5 mg/kg i.v. 12 min before adrenaline, 0.1, 0.2 and 0.3 mg adrenaline successively i.v., 2% CaCl2 infusion
Protocol: as §1

[6] = Acute toxicity, LD50, ICR mouse; conditions: in vivo

**Q.** For `CCCC(=O)N1CCCN(c2nc(N)c3cc(OC)c(OC)cc3n2)CC1` [bunazosin hydrochloride], which “change of striated structure (pathological viewpoint)” value [1] is on record?
**A.** no change was observed

**Q.** What about the LD50 ([2]; im, female, intramuscular) of the same molecule?
**A.** 152 mg/kg

**Q.** And the LD50 ([2]; im, male, intramuscular)?
**A.** 205 mg/kg

**Q.** What about the LD50 ([2]; iv, female) of the same molecule?
**A.** 50 mg/kg

**Q.** What about the LD50 ([2]; iv, male) of the same molecule?
**A.** 51 to 64 mg/kg

**Q.** What about the LD50 ([2]; po, female) of the same molecule?
**A.** 1280 mg/kg

**Q.** What about the LD50 ([2]; sc, female, subcutaneous) of the same molecule?
**A.** 365 mg/kg

**Q.** What about the LD50 ([2]; sc, male, subcutaneous) of the same molecule?
**A.** 430 mg/kg

**Q.** What about the “CPK, difference from the control” value ([3]; 60 min after injection of adrenaline) of the same molecule?
**A.** no significant difference from the control

**Q.** What about the CPK ([3]; determined 60 min after injection of adrenaline (0.05 mg/kg i.v.)) of the same molecule?
**A.** 85.1±15.6

**Q.** What about the solubility ([4]; absolute ethanol) of the same molecule?
**A.** hardly soluble

**Q.** And the solubility ([4]; chloroform)?
**A.** almost insoluble

**Q.** And the solubility ([4]; formic acid)?
**A.** highly soluble

**Q.** What about the solubility ([4]; methanol) of the same molecule?
**A.** not readily soluble

**Q.** And the solubility ([4]; n-butanol)?
**A.** hardly soluble

**Q.** What about the solubility ([4]; water) of the same molecule?
**A.** not readily soluble

**Q.** What about the “ventricular tachycardia or ventricular fibrillation” value [5] of the same molecule?
**A.** none among ten animals

**Q.** What about the LD50 ([6]; im, female, intramuscular) of the same molecule?
**A.** 598 mg/kg

**Q.** What about the LD50 ([6]; im, male, intramuscular) of the same molecule?
**A.** 660 mg/kg

**Q.** What about the LD50 ([6]; iv, female) of the same molecule?
**A.** 80 mg/kg

**Q.** And the LD50 ([6]; iv, male)?
**A.** 57 mg/kg

**Q.** What about the LD50 ([6]; po, female) of the same molecule?
**A.** 1250 mg/kg

**Q.** And the LD50 ([6]; po, male)?
**A.** 1200 mg/kg

**Q.** And the LD50 ([6]; sc, female, subcutaneous)?
**A.** 630 mg/kg

**Q.** What about the LD50 ([6]; sc, male, subcutaneous) of the same molecule?
**A.** 730 mg/kg
